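Step 1: Grow cells in 96-well plates. Step 2: Expose to compound for 48 hours at 5 concentrations. Step 3: Interpolate endpoints linearly; if unreached, use highest concentration. GI50 = concentration required for 50% inhibition of growth.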 Calls of active or inactive are those of the source. No stated cut-off is given here; in the data, active = GI50 up to about 1.1 µM and inactive = higher. *1 amine or outer side, *2 acyl side, *3 side chain or, on linkers, in order; H or OH if unused. Where a SMILES comes first, the peptide text is derived from it. Bridges are numbered along the chain shown (N, C = ends). [ ]: non-standard residue; d: D form. X36 = CC[C@H](C)[C@@H](N[*:1])[C@@H](O)CC(=O)O[C@H](C(=O)[C@H](C)C(=O)[*:2])C(C)C; NMeY = CN[C@@H](Cc1ccc(O)cc1)C(=O)O
Tests used:
Experiment in all cases: DTP human tumour cell line panel, 48 h
[1] = test system: COLO 205
[2] = test system: EKVX
[3] = test system: HCC 2998
[4] = test system: HCT-15
[5] = test system: HOP-62
[6] = test system: KM12
[7] = test system: Malme-3M
[8] = test system: NCI-H522
[9] = test system: OVCAR-4
[10] = test system: OVCAR-5
[11] = test system: RPMI-8226
[12] = test system: RXF 393
[13] = test system: SF-268
[14] = test system: SK-MEL-5
[15] = test system: SK-OV-3
[16] = test system: U-251
[17] = test system: UACC-62
[18] = test system: UO-31

Row | Compound | GI50 [1] | GI50 [2] | GI50 [3] | GI50 [4] [µM] | GI50 [5] | GI50 [6] | GI50 [7] | GI50 [8] | GI50 [9] | GI50 [10] | GI50 [11] | GI50 [12] | GI50 [13] | GI50 [14] | GI50 [15] | GI50 [16] | GI50 [17] | GI50 [18]
1 | CCCC(=O)Nc1cc(/C=C/C(=O)N2CC(CCl)c3c2cc(O)c2[nH]cc(C)c32)n(C)c1 (configuration not stated) | < 2.5e-05 µM (active) | < 2.5e-05 µM (active) | < 2.5e-05 µM (active) | 0.000117 | < 2.5e-05 µM (active) | < 2.5e-05 µM (active) | < 2.5e-05 µM (active) | < 2.5e-05 µM (active) | < 2.5e-05 µM (active) | < 2.5e-05 µM (active) | 5.49e-05 µM (active) | < 2.5e-05 µM (active) | < 2.5e-05 µM (active) | < 2.5e-05 µM (active) | < 2.5e-05 µM (active) | < 2.5e-05 µM (active) | < 2.5e-05 µM (active) | < 2.5e-05 µM (active)
2 | CCN(CC)CCCNc1c2cc(OC)ccc2nc2cccc([N+](=O)[O-])c12 | 0.0238 µM (active) | 0.163 µM (active) | 0.0655 µM (active) | 0.0676 | 0.156 µM (active) | 0.11 µM (active) | 0.118 µM (active) | 0.00658 µM (active) | 0.0261 µM (active) | 0.0832 µM (active) | 0.0535 µM (active) | 0.0557 µM (active) | 0.0841 µM (active) | 0.0935 µM (active) | 0.246 µM (active) | 0.082 µM (active) | 0.166 µM (active) | 0.0402 µM (active)
3 | Oc1cc(O)c2c(c1)OC(c1ccc(O)c(O)c1)C(OC1(c3cc(O)c(O)c(O)c3)Oc3cc(O)cc(O)c3C(O)C1O)C2 (configuration not stated) | 31.8 µM (inactive) | 15.6 µM (inactive) | 62.8 µM (inactive) | 36 | 24 µM (inactive) | 26.1 µM (inactive) | 87.9 µM (inactive) | 21.4 µM (inactive) | 26.4 µM (inactive) | 21.8 µM (inactive) | 22.1 µM (inactive) | 73.5 µM (inactive) | 25.9 µM (inactive) | 18.3 µM (inactive) | > 65.5 µM (inactive) | 20.8 µM (inactive) | 37.6 µM (inactive) | 18 µM (inactive)
4 | CC/C(Cl)=N\OC(=O)Nc1ccc(F)c(Cl)c1 | 2.82 µM (inactive) | 18.2 µM (inactive) | 18.7 µM (inactive) | 15.2 | 19 µM (inactive) | 17.2 µM (inactive) | 4.66 µM (inactive) | 1.87 µM (inactive) | 14.5 µM (inactive) | 16.5 µM (inactive) | 3.35 µM (inactive) | 12.1 µM (inactive) | 15.7 µM (inactive) | 15.6 µM (inactive) | 18.5 µM (inactive) | 17.2 µM (inactive) | 20.6 µM (inactive) | 18.3 µM (inactive)
5 | CC[C@H](C)[C@H]1NC(=O)[C@@H](N)[C@@H](C)OC(=O)[C@H](Cc2ccc(OC)cc2)N(C)C(=O)[C@@H]2CCCN2C(=O)[C@H](CC(C)C)NC(=O)[C@@H](C)C(=O)[C@H](C(C)C)OC(=O)C[C@@H]1O (H-T[X36]LP[NMeY](Me); ester 1-C) | – | 44.2 µM (inactive) | 54.1 µM (inactive) | 36.7 | 14.7 µM (inactive) | 9.35 µM (inactive) | 31.7 µM (inactive) | 10.5 µM (inactive) | 54.5 µM (inactive) | 31.5 µM (inactive) | 12.7 µM (inactive) | 8.13 µM (inactive) | 49.5 µM (inactive) | 12.9 µM (inactive) | 35.6 µM (inactive) | 29.5 µM (inactive) | 29.9 µM (inactive) | 6.62 µM (inactive)
6 | CCOC(=O)C1=NN(c2ccc(C)cc2)C2(c3ccccc3)C=C(c3ccccc3)N(C)CCN12 (configuration not stated) | > 100 µM (inactive) | > 100 µM (inactive) | 82.4 µM (inactive) | > 100 | > 100 µM (inactive) | 48.5 µM (inactive) | > 100 µM (inactive) | > 100 µM (inactive) | > 100 µM (inactive) | > 100 µM (inactive) | 29 µM (inactive) | > 100 µM (inactive) | > 100 µM (inactive) | > 100 µM (inactive) | > 100 µM (inactive) | > 100 µM (inactive) | > 100 µM (inactive) | > 100 µM (inactive)
7 | O=C(O)CN1C(=O)c2ccc(NC(=O)C(=O)O)cc2S1(=O)=O | > 100 µM (inactive) | > 100 µM (inactive) | > 100 µM (inactive) | > 100 | > 100 µM (inactive) | > 100 µM (inactive) | > 100 µM (inactive) | > 100 µM (inactive) | > 100 µM (inactive) | > 100 µM (inactive) | > 100 µM (inactive) | > 100 µM (inactive) | > 100 µM (inactive) | > 100 µM (inactive) | > 100 µM (inactive) | > 100 µM (inactive) | > 100 µM (inactive) | 89.7 µM (inactive)
8 | CCOC(=O)/C=C(/N=P(c1ccccc1)(c1ccccc1)c1ccccc1)C(F)(F)F | > 10 µM (inactive) | > 10 µM (inactive) | 22 µM (inactive) | > 10 | > 10 µM (inactive) | > 10 µM (inactive) | > 10 µM (inactive) | 61.9 µM (inactive) | > 10 µM (inactive) | > 10 µM (inactive) | > 10 µM (inactive) | > 10 µM (inactive) | > 10 µM (inactive) | > 10 µM (inactive) | > 100 µM (inactive) | – | 5.9 µM (inactive) | > 100 µM (inactive)
9 | COC(=O)C1=C([C@H]2COC(C)(C)O2)[C@H]2C[C@@H]1[C@@H]1OC(C)(C)O[C@@H]12 | > 100 µM (inactive) | > 100 µM (inactive) | > 100 µM (inactive) | > 100 | > 100 µM (inactive) | > 100 µM (inactive) | > 100 µM (inactive) | > 100 µM (inactive) | > 100 µM (inactive) | > 100 µM (inactive) | > 100 µM (inactive) | > 100 µM (inactive) | > 100 µM (inactive) | > 100 µM (inactive) | > 100 µM (inactive) | > 100 µM (inactive) | > 100 µM (inactive) | > 100 µM (inactive)
10 | Clc1ccc(CCNC2(c3cc4ccccc4s3)CCCCC2)cc1Cl | 17.8 µM (inactive) | 26.1 µM (inactive) | 7.74 µM (inactive) | 15.3 | 28.2 µM (inactive) | 21.8 µM (inactive) | 19.5 µM (inactive) | 17.5 µM (inactive) | 33.3 µM (inactive) | 19.5 µM (inactive) | 11.5 µM (inactive) | 17.7 µM (inactive) | 53 µM (inactive) | 15.6 µM (inactive) | 29.6 µM (inactive) | 23.9 µM (inactive) | 17.7 µM (inactive) | 16.6 µM (inactive)
11 | O=C1CC(C(=O)O)Cc2c(Br)ccc(O)c21 (configuration not stated) | > 100 µM (inactive) | 78.2 µM (inactive) | > 100 µM (inactive) | > 100 | > 100 µM (inactive) | > 100 µM (inactive) | > 100 µM (inactive) | > 100 µM (inactive) | > 100 µM (inactive) | > 100 µM (inactive) | > 100 µM (inactive) | > 100 µM (inactive) | > 100 µM (inactive) | > 100 µM (inactive) | > 100 µM (inactive) | > 100 µM (inactive) | > 100 µM (inactive) | > 100 µM (inactive)
12 | COC(=O)c1cc2c(cc1Cl)Sc1nnc(Nc3ccccc3)n1S2(=O)=O | 6.52 µM (inactive) | 7.1 µM (inactive) | 1.91 µM (inactive) | 2.34 | 2.15 µM (inactive) | 2.71 µM (inactive) | 3.03 µM (inactive) | 1.68 µM (inactive) | 3.37 µM (inactive) | 7.93 µM (inactive) | 1.62 µM (inactive) | 2.21 µM (inactive) | 2.26 µM (inactive) | 7.96 µM (inactive) | 6.75 µM (inactive) | 2.76 µM (inactive) | 3.99 µM (inactive) | 2.48 µM (inactive)
13 | Cc1cc(O)c2c3c(ccc2c1)C(=O)c1c(O)cccc1C3=O [TETRANGULOL] | 3.25 µM (inactive) | 7.14 µM (inactive) | 5.15 µM (inactive) | 1.92 | 16.3 µM (inactive) | 3.88 µM (inactive) | 0.0157 µM (active) | 0.957 µM (active) | 4.57 µM (inactive) | > 51.3 µM (inactive) | > 28.5 µM (inactive) | > 100 µM (inactive) | 5.66 µM (inactive) | 0.33 µM (active) | > 83.2 µM (inactive) | 21 µM (inactive) | 1.55 µM (inactive) | > 100 µM (inactive)
14 | NS(=O)(=O)c1ccc(NC(=O)Nc2ccccc2F)cc1 | > 100 µM (inactive) | > 100 µM (inactive) | > 100 µM (inactive) | > 100 | > 100 µM (inactive) | > 100 µM (inactive) | > 100 µM (inactive) | > 100 µM (inactive) | > 100 µM (inactive) | > 100 µM (inactive) | > 100 µM (inactive) | > 100 µM (inactive) | > 100 µM (inactive) | > 100 µM (inactive) | > 100 µM (inactive) | > 100 µM (inactive) | 72.3 µM (inactive) | 41.7 µM (inactive)
15 | [O-][n+]1onc2c1/C(=N/O)CCC2 | > 100 µM (inactive) | > 100 µM (inactive) | > 100 µM (inactive) | > 100 | > 100 µM (inactive) | > 100 µM (inactive) | > 100 µM (inactive) | > 100 µM (inactive) | > 100 µM (inactive) | > 100 µM (inactive) | > 100 µM (inactive) | > 100 µM (inactive) | > 100 µM (inactive) | > 100 µM (inactive) | > 100 µM (inactive) | – | > 100 µM (inactive) | > 100 µM (inactive)

— ChEMBL document CHEMBL1201862, “PubChem BioAssay data set” (2004)
